The values that follow come from patent US9951055B2, “Thiazole-based inhibitors of scavenger receptor BI” (THE BROAD INSTITUTE, INC., priority 2012, dated 2018).

Broadly, the IC50 is the point on the concentration scale where inhibition reaches its midpoint.

One series addresses T1, murine SR-BI (Mus musculus, UniProt Q61009).
T1 construct: expressed in transfected cells; host or cells: ldlA[mSR-BI]; (CHO ldlA7 derivative lacking the LDL receptor)
T1 sequence (Q61009 1-509): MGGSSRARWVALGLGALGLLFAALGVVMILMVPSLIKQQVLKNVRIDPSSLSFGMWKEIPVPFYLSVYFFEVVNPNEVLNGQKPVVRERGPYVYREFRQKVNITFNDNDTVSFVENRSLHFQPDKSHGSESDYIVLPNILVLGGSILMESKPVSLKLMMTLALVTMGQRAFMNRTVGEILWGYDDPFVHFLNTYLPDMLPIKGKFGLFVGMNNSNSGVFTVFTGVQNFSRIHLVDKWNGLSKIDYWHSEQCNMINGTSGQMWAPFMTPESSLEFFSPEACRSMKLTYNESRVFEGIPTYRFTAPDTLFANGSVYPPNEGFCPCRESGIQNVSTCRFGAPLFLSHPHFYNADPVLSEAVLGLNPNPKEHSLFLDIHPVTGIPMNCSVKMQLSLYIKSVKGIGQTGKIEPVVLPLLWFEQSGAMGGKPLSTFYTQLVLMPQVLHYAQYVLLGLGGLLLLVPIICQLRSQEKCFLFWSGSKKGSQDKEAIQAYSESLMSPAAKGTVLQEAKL
Description: DiI-HDL uptake assay with washout. Type of series: cell-based. Here is the method: DiI-HDL Uptake Assay with Washout (SA 5: AID No. 588831)
This is a modification of the primary assay where cells are treated with compound prior to the addition of DiI-HDL but no compound is present during the DiI-HDL treatment period. ldlA[mSR-BI]cells were plated into 384-well plates at 30 μl per well and incubated overnight. Cells were treated with compound for 3 hours, then media were removed and the cells were washed with PBS before fresh lipoprotein-free media (Ham's F12/0.5% fatty acid-free Bovine Serum Albumin [BSA]/25 mM HEPES pH 7.4) was added with […] DiI-HDL. Cells took up the DiI via SR-BI over 3 hours in the absence of compound. After significant uptake of the DiI, the cells became fluorescent. The level of fluorescence correlates with the amount of DiI uptake and can be measured with a standard plate reader. The uptake of lipid (represented by DiI) was inhibited by the compound BLT-1.

A further series concerns ldlA[mSR-BI] cells. The series can be described thus: Cell cytotoxicity assay (CellTiter-Glo). Format: cell-based, Chinese hamster. Here is the method:
It is possible that a compound will cause cells to decrease HDL-mediated DiI uptake due to nonspecific consequences of cellular toxicity, representing a second class of false positive hits. The cells were treated with compounds for 3 hours or 24 hours, and then cell viability was measured using the CellTiter-Glo Assay (Promega), a luciferase-based reagent that measures cellular ATP levels. The compounds were tested at different concentrations to determine IC50 values. […] Compounds that were active in the primary assay but toxic below 30 μM at 24 hours (but nontoxic at 3 hours) were still considered. […] Data were normalized against DMSO and the positive control (1 μM BLT-1) in Genedata Assay Analyzer.
All available dry powder samples of the remaining, non-quenching compounds were procured from commercial sources and purities were determined. The compounds obtained were then retested in the primary assay and in the cytotoxicity assays. We wanted to rule out any compounds that were cytotoxic, especially in the 3-hour time span of the primary DiI-HDL uptake assay. Therefore, compounds were tested in ldlA[mSR-BI]cells for cytotoxicity at 3 hours and 24 hours using the CellTiter-Glo assay (Promega) that measures cellular ATP as a marker of cell viability. […] Compounds were screened for inhibition of endocytosis using labeled transferrin, which is known to bind the transferrin receptor, enter cells by clathrin-mediated endocytosis, and move to endosomes before being recycled to the cell surface. The BLT compounds have also been tested for potential interference with endocytosis and show no such activity.
On the technique in general: In ATP-based viability assays light output follows the ATP content of the culture.

A further series addresses T2, C384S SR-BI (Mus musculus, UniProt Q61009, C384S).
T2 construct: expressed in transfected cells; host or cells: CHO cell line lacking LDL receptors (variant of ldlA[mSR-BI])
T2 sequence (Q61009 1-509 C384S): T1 sequence (Q61009 1-509) with C384S
The series can be described thus: Radioactive HDL uptake assay (mutant SR-BI). Type of series: cell-based, murine. The source says:
Radioactive HDL Uptake Assay (mutant SR-BI) (SA 9: AID No. 588837)
BLT-1 is known to interact at cysteine 384 of SR-BI (16). […] This assay is used to determine if the compounds work in a similar fashion to BLT-1 and require Cys384 to alter the binding of HDL particles and uptake of the lipid to the mutant SR-BI scavenger receptor, using an alternative means of labeling HDL-cholesterol particles and avoiding any type of fluorescence measurement. To measure this lipid uptake event, HDL particles are labeled with [^3H]cholesteryl ester and added to C384S SR-BI cells. Cells take up HDL lipids via the mutant SR-BI in 2 to 3 hours. After significant uptake of the HDL lipid, the radiolabel can be detected by liquid scintillation counting. The level of radioactivity correlates with the amount of HDL lipid uptake. The uptake of lipid from the HDL particles can be inhibited by the compound BLT-1 or when co-treated with an excess of unlabeled HDL. The mSR-BI cells utilized in the assay are a CHO cell line lacking expression of the LDL receptors and overexpressing the mutant scavenger receptor, C384S SR-BI.

Molecules are shown by their SMILES. Residue numbers refer to the chain shown, from its start. Entries after “also recorded” stand apart in the source; their conditions may differ. Like-named read-outs stand apart in the source and are kept apart here.

`CCCCCCC1CCCC1=NNC(N)=S` (stereo not drawn) [BLT-1, reference compound]: on murine SR-BI, the “reversibility of inhibition” value is recorded as “nonreversible covalent modifier of SR-BI”. Further, in the series on ldlA[mSR-BI] cells, the “cytotoxicity” value was “toxic to cells”. For the same molecule, on C384S SR-BI, the “uptake of HDL in Cys384Ser mutant background” value was “does not significantly reduce uptake of HDL or efflux of cholesterol”.

Consider `COCC(=O)N1CCc2cc(-c3csc(NC(=O)c4cc(OC)cc(OC)c4)n3)ccc21` [Compound 137, 3,5-Dimethoxy-N-(4-(1-(2-methoxyacetyl)indolin-5-yl)thiazol-2-yl)benzamide], for which, at murine SR-BI, the “inhibition after washout at the IC50 concentration” value is listed as “no inhibition”. The 50% inhibitory concentration (IC50) at murine SR-BI (cells pre-treated, washed with PBS, DiI-HDL without compound, read-out: IC50 after washout) stood at 300 nM. The “reversibility of inhibition” value at murine SR-BI (listed as ML278) is listed as “reversible inhibitor of HDL uptake”; on murine SR-BI (listed as Probe 278) it was “reversible inhibitor”. Further, the “cytotoxicity” value with ldlA[mSR-BI] cells (listed as ML278) is on record as “no cytotoxicity at 24 hours; also recorded: shows no cytotoxicity”. Moreover, on C384S SR-BI, the “uptake of HDL in Cys384Ser mutant background” value was “can reduce uptake and efflux in the mutant background”.
